5 molecules from patent US6653307B2, “1-aryl-4-oxo-1,4-dihydro-3-quinolinecarboxamides as antiviral agents” (Pharmacia & Upjohn Company, priority 2000, dated 2003) can be followed below.

SMILES strings stand for the structures.

In one data set the target is T1, HCMV polymerase (Human cytomegalovirus, UniProt P08546).
T1 construct: made in house; host or cells: recombinant baculovirus-infected SF-9 cells
Kind of data set: HCMV polymerase scintillation proximity assay (SPA). It counts as biochemical. The following applies: 3H-dTTP incorporation. How it is done:
(§1) The HCMV polymerase assay is performed using a scintillation proximity assay (SPA) as described in several references, such as N.D. Cook, et al., Pharmaceutical Manufacturing International, pages 49-53 (1992); K. Takeuchi, Laboratory Practice, September issue (1992); U.S. Pat. No. 4,568,649 (1986); which are incorporated by reference herein. Reactions are performed in 96-well plates. The assay is conducted in 100 μl volume with 5.4 mM HEPES (pH 7.5), 11.7 mM KCl, 4.5 mM MgCl2, 0.36 mg/ml BSA, and 90 nM ^3H-dTTP. Assays are run with and without CHAPS, (3-[(3-cholamidopropyl)-dimethylammonio]-1-propane-sulfonate) at a final concentration of 2 mM. HCMV polymerase is diluted in enzyme dilution buffer containing 50% glycerol, 250 mM NaCl, 10 mM HEPES (pH 7.5), 100 μg/ml BSA, and 0.01% sodium azide. The HCMV polymerase, which is expressed in recombinant baculovirus-infected SF-9 cells and purified according to literature procedures, is added at 10% (or 10 μl) of the final reaction volume, i.e., […]. Compounds are diluted in 50% DMSO and 10 μl are added to each well. Control wells contain an equivalent concentration of DMSO. Unless noted otherwise, reactions are initiated via the addition of 6 nM biotinylated poly(dA)-oligo(dT) template/primer to reaction mixtures containing the enzyme, substrate, and compounds of interest. Plates are incubated in a 25 C or 37 C H2O bath and terminated via the addition of 40 μl/reaction of 0.5 M EDTA (pH 8) per well. Reactions are terminated within the time-frame during which substrate incorporation is linear and varied depending upon the enzyme and conditions used, i.e., 30 min. for HCMV polymerase. Ten μl of streptavidin-SPA beads (20 mg/ml in PBS/10% glycerol) are added following termination of the reaction. Plates are incubated 10 min. at 37 C, then equilibrated to room temperature, and counted on a Packard Topcount. Linear regressions are performed and IC50's are calculated using computer software. A modified version of the above HCMV polymerase assay is performed as described above, but with the following changes: Compounds are diluted in 100% DMSO until final dilution into assay buffer. In the previous assay, compounds are diluted in 50% DMSO. 4.5 mM dithiotherotol (DTT) is added to the polymerase buffer.
(SPA uses beads or plates that emit light when radiolabelled molecules are held near them.)

The target of a further data set is HSV polymerase (Human herpesvirus 1, UniProt P04293). Briefly: HSV polymerase assay (Table 1). It counts as biochemical. How it is done: [Worded in the source for another target; this target is reported under the same test.] as §1
HSV polymerase, sequence (P04293 whole entry): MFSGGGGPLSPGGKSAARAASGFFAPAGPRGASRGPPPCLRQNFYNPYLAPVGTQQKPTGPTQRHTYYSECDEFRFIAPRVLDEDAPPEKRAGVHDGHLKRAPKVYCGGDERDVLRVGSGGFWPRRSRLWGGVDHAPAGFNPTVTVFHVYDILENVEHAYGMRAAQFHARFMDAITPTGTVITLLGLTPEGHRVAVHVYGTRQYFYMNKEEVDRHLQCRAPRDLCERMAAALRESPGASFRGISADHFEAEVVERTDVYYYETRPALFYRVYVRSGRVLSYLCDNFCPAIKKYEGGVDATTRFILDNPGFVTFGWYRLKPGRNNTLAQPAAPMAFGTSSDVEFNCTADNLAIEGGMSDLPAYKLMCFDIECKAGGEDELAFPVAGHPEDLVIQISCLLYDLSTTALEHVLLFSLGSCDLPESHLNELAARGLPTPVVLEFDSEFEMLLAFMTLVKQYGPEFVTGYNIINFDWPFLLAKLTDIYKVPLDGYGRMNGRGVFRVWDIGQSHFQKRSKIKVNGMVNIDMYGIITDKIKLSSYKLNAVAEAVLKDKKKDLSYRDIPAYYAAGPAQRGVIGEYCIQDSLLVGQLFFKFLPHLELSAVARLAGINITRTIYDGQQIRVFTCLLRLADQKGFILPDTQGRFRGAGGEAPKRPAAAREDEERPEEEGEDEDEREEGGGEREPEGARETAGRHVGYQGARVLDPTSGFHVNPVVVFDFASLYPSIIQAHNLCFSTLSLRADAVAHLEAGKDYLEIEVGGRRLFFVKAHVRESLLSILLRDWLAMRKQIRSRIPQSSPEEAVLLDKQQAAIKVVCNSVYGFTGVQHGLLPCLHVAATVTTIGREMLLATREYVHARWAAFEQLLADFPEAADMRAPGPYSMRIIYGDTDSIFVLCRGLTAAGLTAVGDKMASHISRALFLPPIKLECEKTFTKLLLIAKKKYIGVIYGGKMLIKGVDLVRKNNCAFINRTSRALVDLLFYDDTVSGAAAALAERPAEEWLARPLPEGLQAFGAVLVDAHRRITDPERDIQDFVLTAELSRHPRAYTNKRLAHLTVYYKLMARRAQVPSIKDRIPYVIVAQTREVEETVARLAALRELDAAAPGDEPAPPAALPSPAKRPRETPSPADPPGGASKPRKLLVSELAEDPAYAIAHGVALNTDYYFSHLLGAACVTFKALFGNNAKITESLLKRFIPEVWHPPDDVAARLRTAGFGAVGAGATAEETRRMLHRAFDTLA
A further data set has as its target VZV polymerase (Varicella-zoster virus, UniProt P09252). Kind of data set: VZV polymerase assay (Table 1). It counts as biochemical. How it is done:
[Worded in the source for another target; this target is reported under the same test.] as §1

VZV polymerase, sequence (P09252 whole entry): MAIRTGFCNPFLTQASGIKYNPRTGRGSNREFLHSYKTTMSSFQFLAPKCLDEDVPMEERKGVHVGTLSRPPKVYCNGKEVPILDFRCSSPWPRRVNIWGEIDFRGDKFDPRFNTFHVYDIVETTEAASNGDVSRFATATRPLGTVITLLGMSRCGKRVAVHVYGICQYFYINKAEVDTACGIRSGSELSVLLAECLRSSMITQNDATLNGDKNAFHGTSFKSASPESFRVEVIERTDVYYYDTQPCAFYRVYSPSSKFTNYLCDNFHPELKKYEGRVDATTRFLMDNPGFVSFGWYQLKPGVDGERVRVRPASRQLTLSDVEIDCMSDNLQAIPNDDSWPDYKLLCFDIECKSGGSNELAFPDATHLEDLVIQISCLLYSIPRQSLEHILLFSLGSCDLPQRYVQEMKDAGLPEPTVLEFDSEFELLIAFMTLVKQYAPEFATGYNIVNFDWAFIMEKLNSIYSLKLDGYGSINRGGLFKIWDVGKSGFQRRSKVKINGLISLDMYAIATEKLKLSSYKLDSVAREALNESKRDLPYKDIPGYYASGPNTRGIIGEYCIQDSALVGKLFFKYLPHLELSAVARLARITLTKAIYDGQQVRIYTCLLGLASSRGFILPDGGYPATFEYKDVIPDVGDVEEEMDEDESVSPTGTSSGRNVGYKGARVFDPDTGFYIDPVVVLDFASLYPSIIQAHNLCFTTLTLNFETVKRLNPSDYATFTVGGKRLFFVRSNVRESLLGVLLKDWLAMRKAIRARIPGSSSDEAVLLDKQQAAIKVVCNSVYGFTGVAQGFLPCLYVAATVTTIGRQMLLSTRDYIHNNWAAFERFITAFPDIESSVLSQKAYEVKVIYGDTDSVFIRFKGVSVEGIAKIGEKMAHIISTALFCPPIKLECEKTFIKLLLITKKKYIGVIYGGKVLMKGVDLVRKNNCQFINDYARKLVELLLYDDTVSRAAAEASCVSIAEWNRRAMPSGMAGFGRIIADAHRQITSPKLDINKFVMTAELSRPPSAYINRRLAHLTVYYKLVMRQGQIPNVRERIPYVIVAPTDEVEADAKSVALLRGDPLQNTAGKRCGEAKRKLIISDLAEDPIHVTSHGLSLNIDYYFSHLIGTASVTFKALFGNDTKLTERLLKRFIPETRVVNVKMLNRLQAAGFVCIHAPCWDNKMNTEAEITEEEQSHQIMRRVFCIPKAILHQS
T1 sequence (P08546 whole entry): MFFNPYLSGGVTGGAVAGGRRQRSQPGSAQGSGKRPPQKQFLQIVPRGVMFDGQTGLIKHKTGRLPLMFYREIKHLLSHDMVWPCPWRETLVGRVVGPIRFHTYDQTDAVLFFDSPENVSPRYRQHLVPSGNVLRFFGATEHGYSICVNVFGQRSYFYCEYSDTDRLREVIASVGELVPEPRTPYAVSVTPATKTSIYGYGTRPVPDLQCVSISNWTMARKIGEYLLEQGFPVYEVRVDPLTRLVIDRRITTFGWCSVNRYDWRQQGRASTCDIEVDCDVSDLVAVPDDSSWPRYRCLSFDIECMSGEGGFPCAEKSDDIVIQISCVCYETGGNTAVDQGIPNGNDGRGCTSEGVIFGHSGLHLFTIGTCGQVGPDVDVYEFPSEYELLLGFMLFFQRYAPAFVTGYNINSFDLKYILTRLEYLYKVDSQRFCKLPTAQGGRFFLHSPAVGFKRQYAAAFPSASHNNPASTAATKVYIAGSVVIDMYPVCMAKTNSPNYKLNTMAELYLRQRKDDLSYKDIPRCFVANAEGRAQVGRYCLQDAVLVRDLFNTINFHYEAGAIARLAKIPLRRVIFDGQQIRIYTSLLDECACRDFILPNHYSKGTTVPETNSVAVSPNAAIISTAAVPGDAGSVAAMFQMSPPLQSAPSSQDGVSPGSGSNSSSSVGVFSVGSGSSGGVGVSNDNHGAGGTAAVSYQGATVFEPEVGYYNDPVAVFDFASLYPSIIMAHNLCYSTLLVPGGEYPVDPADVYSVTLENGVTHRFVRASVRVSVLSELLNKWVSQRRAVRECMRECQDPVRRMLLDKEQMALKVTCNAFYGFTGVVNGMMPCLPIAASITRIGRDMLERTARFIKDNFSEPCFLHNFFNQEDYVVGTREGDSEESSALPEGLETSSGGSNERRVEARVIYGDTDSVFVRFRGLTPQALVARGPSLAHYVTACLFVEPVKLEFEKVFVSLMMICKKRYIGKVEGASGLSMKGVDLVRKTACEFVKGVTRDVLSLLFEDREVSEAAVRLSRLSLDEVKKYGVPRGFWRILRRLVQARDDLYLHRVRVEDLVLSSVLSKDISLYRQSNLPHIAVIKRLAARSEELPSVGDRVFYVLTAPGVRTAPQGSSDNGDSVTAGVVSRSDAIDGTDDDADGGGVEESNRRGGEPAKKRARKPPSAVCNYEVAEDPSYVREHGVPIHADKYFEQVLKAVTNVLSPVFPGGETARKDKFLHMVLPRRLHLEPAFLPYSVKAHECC

`O=C(NCc1ccc(Cl)cc1)c1cn(-c2cccc(O)c2)c2ccc(CN3CCOCC3)cc2c1=O` [Example 13, N-(4-Chlorobenzyl)-I-(3-hydroxyphenyl)-6-(4-morpholinylmethyl)-4-oxo-1,4-dihydro-3-quinolinecarboxamide] returned a melting point of 248 to 250 °C. The midpoint of inhibition against HCMV polymerase, the IC50, lay at 0.73 µM. At HSV polymerase, this molecule returned an IC50 of 0.54 µM. At VZV polymerase, this molecule came in with an IC50 of 0.24 µM.

The molecule `O=C(NCc1ccc(Cl)cc1)c1cn(-c2cccc(CCO)c2)c2ccc(CN3CCOCC3)cc2c1=O` [Example 14, N-(4-Chlorobenzyl)-1-(3-(2-hydroxyethyl)phenyl)-6-(4-morpholinylmethyl)-4-oxo-1,4-dihydro-3-quinolinecarboxamide] showed a melting point of 158 to 160 °C. Inhibition against HCMV polymerase was half-maximal at 0.82 µM (IC50). Also, inhibition on HSV polymerase was half-maximal at 0.7 µM (IC50). Further, the midpoint of inhibition against VZV polymerase, the IC50, lay at 0.43 µM.

Regarding `O=C(NCc1ccc(Cl)cc1)c1cn(-c2cccc(CO)c2)c2ccc(CN3CCOCC3)cc2c1=O` [Example 17, N-(4-Chlorobenzyl)-1-(3-(hydroxymethyl)phenyl)-6-(4-morpholinylmethyl)-4-oxo-1,4-dihydro-3-quinolinecarboxamide], the melting point lay in the range of 119 to 121 °C. For the same molecule, on HCMV polymerase, the IC50 was 0.74 µM. The molecule also registered an IC50 on HSV polymerase of 0.44 µM. This molecule also yielded an IC50 at VZV polymerase of 0.31 µM.

As to `O=C(NCc1ccc(Cl)cc1)c1cn(-c2cccc(C#CCO)c2)c2ccc(CN3CCOCC3)cc2c1=O` [Example 20, N-(4-Chlorobenzyl)-1-(3-(3-hydroxy-1-propynyl)phenyl)-6-(4-morpholinylmethyl)-4-oxo-1,4-dihydro-3-quinolinecarboxamide], the melting point lay within 145 to 148 °C. At HCMV polymerase, this molecule displayed an IC50 of 0.57 µM. This molecule registered an IC50 on HSV polymerase of 0.59 µM. The same molecule came in with an IC50 against VZV polymerase of 0.29 µM.

`O=C(NCc1ccc(Cl)cc1)c1cn(-c2cccc(CCCO)c2)c2ccc(CN3CCOCC3)cc2c1=O` [Example 25, N-(4-Chlorobenzyl)-1-[3-(3-hydroxypropyl)phenyl]-6-(4-morpholinylmethyl)-4-oxo-1,4-dihydro-3-quinolinecarboxamide] came in with a melting point of 115 to 118 °C. This molecule also gave an IC50 on HCMV polymerase of 1.08 µM. The midpoint of inhibition against HSV polymerase, the IC50, lay at 0.98 µM. At VZV polymerase, the IC50 was determined as 0.48 µM.

Usually IC50 stands for the concentration that inhibits the measured activity by half. The melting point is the temperature of the solid-liquid transition.
